Results reported in patent publication US20210255193A1, “LYSINE REACTIVE PROBES AND USES THEREOF” (The Scripps Research Institute, priority 2017, published 2021).
One block for each molecule: values may come before it.

How the values were obtained:
Assay in all cases: competitive isoTOP-ABPP
Type in all cases: binding
[1] = target: T1, CPOX Coproporphyrinogen-III oxidase, mitochondrial (Homo sapiens, UniProt P36551); set-up: key to isoTOP-ABPP reactivity ratio at lysine P36551_K404: R = MS1 peak area ratio, DMSO (heavy) / compound-treated (light); settings: for isoTOP-ABPP reactivity ratio at lysine P36551_K404 / isoTOP-ABPP ratio (R) at liganded lysine P36551_K404 / R value (DMSO/fragment) for probe 1 labeling: 50 uM, in vitro; for isoTOP-ABPP reactivity ratio at lysine P36551_K404 / R value (DMSO/fragment) for probe 1 labeling: 231 sol; for isoTOP-ABPP ratio (R) at liganded lysine P36551_K404: sol, 231; for R value (DMSO/fragment) for probe 1 labeling: P36551_K404
T1 construct: isoTOP-ABPP experiments performed in cell lysates (in vitro); endogenous in cells; host or cells: soluble proteome of human cancer cell lines (MDA-MB-231; Ramos and Jurkat also prepared)
T1 sequence (P36551 111-454): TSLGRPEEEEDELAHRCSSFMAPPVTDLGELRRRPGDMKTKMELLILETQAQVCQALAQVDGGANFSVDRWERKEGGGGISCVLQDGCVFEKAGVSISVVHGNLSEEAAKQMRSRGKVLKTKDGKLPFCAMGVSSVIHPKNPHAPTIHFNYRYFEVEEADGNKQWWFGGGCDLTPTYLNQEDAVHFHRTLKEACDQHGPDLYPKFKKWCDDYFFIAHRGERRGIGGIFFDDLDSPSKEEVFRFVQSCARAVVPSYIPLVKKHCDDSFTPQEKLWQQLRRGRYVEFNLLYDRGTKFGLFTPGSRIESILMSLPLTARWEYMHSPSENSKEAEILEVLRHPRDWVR
Experimental: (§1) In vitro covalent fragment treatment for isoTOP-ABPP. All compounds were made up as solutions in DMSO (100×) and were used at a final concentration of 50 μM for activated esters and 100 μM for guanidinylating agents. For each profiling sample, 0.5 ml of lysate was treated with 5 μl of the 100× compound stock solution or 5 μl of DMSO. Samples were treated with activated esters for
(§2) STP-alkyne labeling and click chemistry. For concentration-dependent reactivity measurements by isoTOP-ABPP, 0.5 ml proteome aliquots were treated at ambient temperature with 1 mM STP-alkyne 1 (5 μl of 100 mM stock in DMSO) and 0.1 mM STP alkyne 1 (5 μl of 10 mM stock in DMSO), respectively. For competitive isoTOP-ABPP, after in vitro fragment treatment (detailed above), the samples were labeled for 1 h at ambient temperature with 0.1 mM STP-alkyne 1 (5 μl of 10 mM stock in DMSO). Samples were conjugated by copper-mediated azide-alkyne cycloaddition (CuAAC) to either the light (1 mM STP-alkyne or fragment treated) or heavy (0.1 mM STP-alkyne or DMSO treated) TEV tags (10 μl of 5 mM stocks in DMSO, final concentration=100 μM) using tris(2-carboxyethyl)phosphine hydrochloride
(§3) R value calculation and processing. The ratios of light and heavy MS1 peaks for each unique peptide were quantified with a CIMAGE software using default parameters (3 MS1 acquisitions per peak and signal to noise threshold set to 2.5). For reactivity measurements by isoTOP-ABPP, the R value was calculated from the ratio of MS1 peak areas, comparing the 1 mM STP alkyne sample (light TEV tag) with the 0.1 mM STP alkyne sample (heavy TEV tag). For competitive isoTOP-ABPP, the R value was calculated from the ratio of MS1 peak areas, comparing the DMSO treated sample (heavy TEV tag) with the compound treated sample (light TEV tag). […] Ratios for unique peptide entries are calculated for each experiment; overlapping peptides with the same modified lysine (for example, different charge states, MudPIT chromatographic steps or tryptic termini) are grouped together and the median ratio is reported as the final ratio (R). The peptide ratios reported by CIMAGE were further filtered to ensure the removal or correction of low-quality ratios in each individual data set. The quality filters applied were the following: removal of half tryptic peptides; for ratios with high standard deviations from the median (90% of the median or above) the lowest ratio was taken instead of the median; removal of peptides with R=20 and only a single MS2 event triggered during the elution of the parent ion; manual annotation of all the peptides with ratios of 20, removing any peptides with low quality elution profiles that remained after the previous curation steps (only done for competitive isoTOP-ABPP).
(§4) Cross-data processing for fragment screening. For compound treated samples, biological replicates of the same condition were averaged, if the standard deviation was below 60% of the mean; otherwise, for lysines with at least one R value <4 for a particular compound, the lowest value of the ratio set was taken. For lysines, where all R values for a particular compound were ≥4, the average was reported. For peptides containing several possible modified lysines, the lysine with the highest number of quantification events was used for analysis and the remaining, redundant peptides were reported as alternative modification sites. Peptides included in the aggregate dataset (those used for further bioinformatics and statistical analyses) were required to have been quantified in 2 experiments for competitive isoTOP-ABPP. Lysines were categorized as liganded, if they had at least one ratio R≥4 (hit fragments). For liganded lysines with R=20 for all liganding events, lysines were required to have been quantified with R=20 in two separate experiments and were further required to have been quantified with R<20 in one additional experiment.

[2] = target: T2, TPMT Thiopurine S-methyltransferase (Homo sapiens, UniProt P51580); set-up: key to isoTOP-ABPP reactivity ratio at lysine P51580_K32: R = MS1 peak area ratio, DMSO (heavy) / compound-treated (light); settings: for isoTOP-ABPP reactivity ratio at lysine P51580_K32 / isoTOP-ABPP ratio (R) at liganded lysine P51580_K32 / R value (DMSO/fragment) for probe 1 labeling: 50 uM, in vitro; for isoTOP-ABPP reactivity ratio at lysine P51580_K32 / R value (DMSO/fragment) for probe 1 labeling: 231 sol; for isoTOP-ABPP ratio (R) at liganded lysine P51580_K32: sol, 231; for R value (DMSO/fragment) for probe 1 labeling: P51580_K32
T2 construct: isoTOP-ABPP experiments performed in cell lysates (in vitro); endogenous in cells; host or cells: soluble proteome of human cancer cell lines (MDA-MB-231; Ramos and Jurkat also prepared)
T2 sequence (P51580 1-245): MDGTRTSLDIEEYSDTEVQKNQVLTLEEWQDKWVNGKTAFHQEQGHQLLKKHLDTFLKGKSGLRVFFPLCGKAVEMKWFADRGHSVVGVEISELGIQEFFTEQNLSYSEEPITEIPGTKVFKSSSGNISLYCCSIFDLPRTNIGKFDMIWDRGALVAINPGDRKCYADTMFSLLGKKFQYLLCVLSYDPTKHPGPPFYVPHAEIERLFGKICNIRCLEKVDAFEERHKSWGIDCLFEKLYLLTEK
Experimental: as §1, §2, §3, §4

[3] = target: T3, ISOC2 Isochorismatase domain-containing protein 2, mitochondrial (Homo sapiens, UniProt Q96AB3); set-up: key to isoTOP-ABPP reactivity ratio at lysine Q96AB3_K178: R = MS1 peak area ratio, DMSO (heavy) / compound-treated (light); capped at 20; settings: for isoTOP-ABPP reactivity ratio at lysine Q96AB3_K178 / isoTOP-ABPP ratio (R) at liganded lysine Q96AB3_K178 / R value (DMSO/fragment) for probe 1 labeling: 50 uM, in vitro; for isoTOP-ABPP reactivity ratio at lysine Q96AB3_K178 / R value (DMSO/fragment) for probe 1 labeling: 231 sol; for isoTOP-ABPP ratio (R) at liganded lysine Q96AB3_K178: sol, 231; for R value (DMSO/fragment) for probe 1 labeling: Q96AB3_K178
T3 construct: isoTOP-ABPP experiments performed in cell lysates (in vitro); endogenous in cells; host or cells: soluble proteome of human cancer cell lines (MDA-MB-231; Ramos and Jurkat also prepared)
T3 sequence (Q96AB3 1-205): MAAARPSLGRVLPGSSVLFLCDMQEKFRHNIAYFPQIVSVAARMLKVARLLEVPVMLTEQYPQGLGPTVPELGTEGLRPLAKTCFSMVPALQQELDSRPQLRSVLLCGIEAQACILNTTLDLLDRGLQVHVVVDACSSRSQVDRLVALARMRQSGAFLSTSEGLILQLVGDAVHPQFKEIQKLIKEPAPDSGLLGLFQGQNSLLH
Experimental: as §1, §2, §3, §4

[4] = target: T4, MAP1LC3B Microtubule-associated proteins 1A/1B light chain (Homo sapiens, UniProt Q9GZQ8); set-up: key to isoTOP-ABPP reactivity ratio at lysine Q9GZQ8_K51: R = MS1 peak area ratio, DMSO (heavy) / compound-treated (light); settings: for isoTOP-ABPP reactivity ratio at lysine Q9GZQ8_K51 / isoTOP-ABPP ratio (R) at liganded lysine Q9GZQ8_K51 / R value (DMSO/fragment) for probe 1 labeling: 50 uM, in vitro; for isoTOP-ABPP reactivity ratio at lysine Q9GZQ8_K51 / R value (DMSO/fragment) for probe 1 labeling: 231 sol; for isoTOP-ABPP ratio (R) at liganded lysine Q9GZQ8_K51: sol, 231; for R value (DMSO/fragment) for probe 1 labeling: Q9GZQ8_K51
T4 construct: isoTOP-ABPP experiments performed in cell lysates (in vitro); endogenous in cells; host or cells: soluble proteome of human cancer cell lines (MDA-MB-231; Ramos and Jurkat also prepared)
Experimental: as §1, §2, §3, §4

SMILES: Cn1cc(CC(=O)Oc2ccc([N+](=O)[O-])cc2[N+](=O)[O-])c2ccccc21 [fragment 32, 2,4-Dinitrophenyl 2-(1-methyl-1H-indol-3-yl)acetate]
isoTOP-ABPP reactivity ratio at lysine P36551_K404 [1]: 1.0
isoTOP-ABPP reactivity ratio at lysine P51580_K32 [2]: 2.5
isoTOP-ABPP reactivity ratio at lysine Q96AB3_K178 [3]: 1.1
isoTOP-ABPP reactivity ratio at lysine Q9GZQ8_K51 [4]: 0.9

SMILES: O=C(CCc1ccc2c(c1)OCO2)Oc1ccc([N+](=O)[O-])cc1[N+](=O)[O-] [fragment 45, 2,4-Dinitrophenyl 3-(benzo[d][1,3]dioxol-5-yl)propanoate]
isoTOP-ABPP ratio, lysine P36551_K404 ([1]; 50 uM_231_sol_in vitro): 1.2
isoTOP-ABPP ratio, lysine P51580_K32 ([2]; 50 uM_231_sol_in vitro): 2.3
isoTOP-ABPP ratio, lysine Q96AB3_K178 ([3]; 50 uM_231_sol_in vitro): 1.8
isoTOP-ABPP ratio, lysine Q9GZQ8_K51 ([4]; 50 uM_231_sol_in vitro): 1.0

SMILES: O=C(CCc1coc2cc(F)ccc2c1=O)Oc1ccc([N+](=O)[O-])cc1[N+](=O)[O-] [fragment 36, 2,4-Dinitrophenyl 3-(7-fluoro-4-oxo-4H-chromen-3-yl)propanoate]
isoTOP-ABPP ratio (R) at liganded lysine P36551_K404 [1]: 1.0
isoTOP-ABPP ratio (R) at liganded lysine P51580_K32 [2]: 3.4
isoTOP-ABPP ratio (R) at liganded lysine Q96AB3_K178 [3]: 1.7
isoTOP-ABPP ratio (R) at liganded lysine Q9GZQ8_K51 [4]: 0.8

SMILES: O=C(CC12CC3CC(CC(C3)C1)C2)Oc1ccc([N+](=O)[O-])cc1[N+](=O)[O-] [fragment 38, 2,4-Dinitrophenyl 2-(adamantan-1-yl)acetate]
isoTOP-ABPP ratio (R) at liganded lysine P36551_K404 [1]: 1.0
isoTOP-ABPP ratio (R) at liganded lysine P51580_K32 [2]: 1.1
isoTOP-ABPP ratio (R) at liganded lysine Q96AB3_K178 [3]: 0.9
isoTOP-ABPP ratio (R) at liganded lysine Q9GZQ8_K51 [4]: 0.8

R value (DMSO/fragment) for probe 1 labeling [1]: 1.3
R value (DMSO/fragment) for probe 1 labeling [2]: 6.4
R value (DMSO/fragment) for probe 1 labeling [3]: 1.2
R value (DMSO/fragment) for probe 1 labeling [4]: 0.7
SMILES: COc1cc(CCC(=O)Oc2c(F)c(F)c(F)c(F)c2F)cc(OC)c1OC [fragment 23, Pentafluorophenyl 3-(3,4,5-trimethoxyphenyl)propanoate]

R value (DMSO/fragment) for probe 1 labeling [1]: 1.1
R value (DMSO/fragment) for probe 1 labeling [2]: 1.3
R value (DMSO/fragment) for probe 1 labeling [3]: 1.0
R value (DMSO/fragment) for probe 1 labeling [4]: 1.2
SMILES: Cn1cc(CC(=O)Oc2c(F)c(F)c(F)c(F)c2F)c2ccccc21 [fragment 22, Pentafluorophenyl 2-(1-methyl-1H-indol-3-yl)acetate]

isoTOP-ABPP reactivity ratio at lysine P36551_K404 [1]: 1.3
isoTOP-ABPP reactivity ratio at lysine P51580_K32 [2]: 2.9
isoTOP-ABPP reactivity ratio at lysine Q96AB3_K178 [3]: 1.4
isoTOP-ABPP reactivity ratio at lysine Q9GZQ8_K51 [4]: 0.9
SMILES: O=C(Oc1c(F)c(F)c(F)c(F)c1F)c1ccc2ccccc2n1 [fragment 25, Pentafluorophenyl quinoline-2-carboxylate]
